Reference: US9161893B2, “Use, as antidandruff agent, of (ethoxyhydroxyphenyl) alkyl ketone or ethoxyhydroxyalkylphenol compounds” (L'OREAL, priority 2011, dated 2015)

Legend:
Malassezia globosa = test: Antifungal growth inhibition on MLNA agar, scored against growth control; assay type: cell-based; conditions: for Inhibition score Malassezia globosa: MLNA agar, at least 5 days at 30° C.
Protocol: (§1) A solution containing 2% by weight of test compound is prepared in “modified Leeming and Notman liquid (MLNA)” in the following way: 0.2048 g of test compound is weighed out into qs for 10 ml of modified Leeming and Notman liquid; solubilization is carried out by heating and the use of ultrasound. The solutions of test product are twice as concentrated as the final test concentration, in order to take into account the dilution when they are brought into contact with the Malassezia suspension. One of the previously prepared solutions at 2% is diluted to ½ in modified Leeming and Notman liquid, so as to finally obtain a test concentration of 0.5%; the other solution is used as it is (at 2%) so as to finally obtain a test concentration of 1%. The Malassezia strains are brought into contact according to the table below: [table] The mixture is stirred and deposited at the surface of the MLNA agar. It is spread, with a sterile scraper, over the entire surface before recovering the excess. It is left to incubate for at least 5 days at 30° C. The antifungal effect of the compound is evaluated via the absence of growth of the Malassezia strain tested. This inhibition is evaluated relative to the growth control. The inhibitions are scored from 0 to 3 via assessment of the density of the culture at the surface of the agar, in comparison with the growth control, in the following way: [table]

Malassezia restricta = test: as above; assay type: cell-based; conditions: for Inhibition score Malassezia restricta: MLNA agar, at least 5 days at 30° C.
Protocol: as §1

## CCOc1cc(CCC(C)=O)ccc1O [Compound tested]
Malassezia globosa; compound at 0.5%
  Growth inhibition of Malassezia globosa (in words): weakly
Malassezia globosa; compound at 1%
  Growth inhibition of Malassezia globosa (in words): completely inhibits the growth
Malassezia globosa; test concentration 0.5%
  Inhibition score Malassezia globosa: 1 (25% Growth < in the control dish)
Malassezia globosa; test concentration 1%
  Inhibition score Malassezia globosa: 3 (100% No growth)
Malassezia restricta; compound at 0.5%
  Growth inhibition of Malassezia restricta (in words): very effective
Malassezia restricta; compound at 1%
  Growth inhibition of Malassezia restricta (in words): completely inhibits the growth
Malassezia restricta; test concentration 0.5%
  Inhibition score Malassezia restricta: 3 (100% No growth)
Malassezia restricta; test concentration 1%
  Inhibition score Malassezia restricta: 3 (100% No growth)
